From patent publication US9289467B2, “Compositions and methods for treating bone conditions” (Case Western Reserve University, priority 2011, dated 2016)
“Also recorded” adds a separate entry of the source.

How the values were obtained:
Format in all cases: cell-based
WT BM cells = assay: OC differentiation of WT mouse BM cells stimulated with 1.25(OH)2 vitamin D3, TRAP staining; conditions: for TRAP-positive multinuclear cells / TRAP-positive mononuclear cells / numbers of resultant OC with exogenous C3a/C5a, result in words: WT BM cells; for TRAP-positive multinuclear cells / TRAP-positive mononuclear cells: 1×10^−8M 1.25(OH)2 vitamin D3, 50 μM of each antagonist, day 12; for TRAP-positive multinuclear cells: placebo 42±9; for TRAP-positive mononuclear cells: placebo 217±25; for OC generation / differentiation, result in words: WT mouse BM cells, antagonist during 1.25(OH)2 vitamin D3 stimulation, vs placebo; for numbers of resultant OC with exogenous C3a/C5a, result in words: 50 ng/mL C3a or C5a or both added daily
Method: (§1) Human BM cells from healthy donors were obtained from the Hematopoietic Stem Cell Core Facility of Case Western Reserve University. Murine BM cells were isolated from 8- to 12-week-old female mouse femurs and tibias, washed, and collected in 15-mL tubes in α-modified Eagle medium (MEM) containing 10% fetal bovine serum (FBS) that was heat-inactivated to eliminate complement activity. For OC differentiation, 2×10^6 BM cells were cultured in complete α-MEM medium in wells of a 24-well plate together with 1×10^−8M 1.25(OH)2 vitamin D3 (Cayman Chemical) as described before. Cultures were fed every 3 days with fresh media. For IL-6 or C5aR antagonist (C5aRA)/C3aR antagonist (C3aRA) supplementation experiments, 20 ng/mL IL-6 (R&D Systems) or 50 μM of each antagonist or both (C5aRA: JPE-1375; custom synthesized by Anaspec; C3aRA:SB290157; purchased from BMD Chemicals) were included in the medium. For C3a and/or C5a supplementation experiments, 50 ng/mL purified C3a (BD Biosciences) or C5a (Cell Sciences) or both were added daily into WT and C3^−/− BM-cell cultures. To neutralize IL-6 in samples treated with C3a/C5a, 10 ng/mL rat anti-IL-6 mAb (Clone 6B4 IGH 54; eBioscience) were added every 2 days. At day 12, differentiated OCs were identified by conventional tartrate-resistant acid phosphatase (TRAP) staining using a kit (Sigma-Aldrich) and following the protocol provided by the manufacturer. Total numbers of TRAP-positive cells in each well were counted under a microscope, and cells containing 3 or more nuclei were categorized as multinucleated.

human BM cells = assay: OC differentiation of human BM cells stimulated with 1.25(OH)2 vitamin D3, TRAP staining; conditions: 1.25(OH)2 vitamin D3, with antagonists vs placebo
Method: as §1
To determine whether the above-observed results would apply to humans, we subjected normal human BM cells to OC differentiation conditions with and without the C3aR/C5aR antagonists, then analyzed the conditioned media for the presence of factor B, factor D, and C5, and quantified the resultant TRAP^+ cells.

C3^−/− BM cells = assay: OC differentiation of C3^−/− mouse BM cells stimulated with 1.25(OH)2 vitamin D3, TRAP staining; conditions: for numbers of resultant OC with exogenous C3a/C5a, result in words: 50 ng/mL C3a or C5a or both added daily
Method: as §1

Row | Molecule | TRAP-positive multinuclear cells (WT BM cells) [cells] | TRAP-positive mononuclear cells (WT BM cells) [cells] | OC generation / differentiation, result in words (WT BM cells) | OC differentiation (TRAP^+ cells), result in words (human BM cells) | numbers of resultant OC with exogenous C3a/C5a, result in words (WT BM cells) | numbers of resultant OC with exogenous C3a/C5a, result in words (C3^−/− BM cells; C3^−/− BM cells) | also measured
1 | NC(N)=NCCC[C@H](NC(=O)COCC(c1ccccc1)c1ccccc1)C(=O)O [C3aRA, SB290157] | 29±7 | 156±23 | significantly inhibited OC generation | significant decrease in both mononuclear and multi-nuclear TRAP^+ cells | – | – | –
2 | C3a: purified C3a (BD Biosciences), complement activation product, 50 ng/mL | – | – | – | – | increased the numbers of resultant OC | increased the numbers of resultant OC | –
3 | JPE-1375 [C5aRA] | 34±8 | 176±29 | did not reach a statistical significance | decrease in both cell types, but only the mono-nuclear cells were at the level of statistical significance | – | – | OC generation / differentiation, result in words (WT BM cells; listed as JPE-1375): inhibits mouse and human OC differentiation in vitro; OC differentiation (TRAP^+ cells), result in words (human BM cells; listed as JPE-1375): inhibits mouse and human OC differentiation in vitro
4 | IL-6: exogenous IL-6 (R&D Systems), 20 ng/mL supplemented into BM cell cultures (protein, UniProt P08505 25-211, looked up) Interleukin-6: FPTSQVRRGDFTEDTTPNRPVYTTSQVGGLITHVLWEIVEMRKELCNGNSDCMNNDDALAENNLKLPEIQRNDGCYQTGYNQEICLLKISSGLLEYHSYLEYMKNNLKDNKKDKARVLQRDTETLIHIFNQEVKDLHKIVLPTPISNALLTDKLESQKEWLRTKTIQFILKSLEEFLKVTLRSTRQT | – | – | – | – | – | – | OC differentiation with IL-6 supplementation, result in words (C3^−/− BM cells; C3^−/− BM cell cultures supplemented with IL-6): rescued the C3^−/− phenotype; also recorded: restored their OC differentiation capabilities; TRAP-positive cells (multinucleated) (C3^−/− BM cells; C3^−/− BM cells, 20 ng/mL IL-6 daily, 12 days, without IL-6 31±4): 52±9; TRAP-positive cells (mononuclear) (C3^−/− BM cells; C3^−/− BM cells, 20 ng/mL IL-6 daily, 12 days, without IL-6 108±17): 249±39; Trap^+ Multi-Nucl. Cells/Well (C3^−/− BM cells; Table 2, C3^−/− BM cells + IL-6, C3^−/− without IL-6 31 ± 4): 52 ± 9 Cells/Well; Trap^+ Mono-Nucl. Cells/Well (C3^−/− BM cells; Table 2, C3^−/− BM cells + IL-6, C3^−/− without IL-6 108 ± 17): 249 ± 39 Cells/Well
5 | C5a: purified C5a (Cell Sciences), complement activation product, 50 ng/mL (protein, UniProt P06684 679-755, looked up, C5a anaphylatoxin) C5a anaphylatoxin: NLHLLRQKIEEQAAKYKHSVPKKCCYDGARVNFYETCEERVARVTIGPLCIRAFNECCTIANKIRKESPHKPVQLGR | – | – | – | – | did not appear to have a significant effect | did not appear to have a significant effect | –
